According to patent publication US7897643B2, “Biphenyl carboxylic acids and derivatives thereof” (Janssen Pharmaceutica N.V., priority 2007, dated 2011):
Like-named read-outs stand apart in the source and are kept apart here.

Key:
γ-secretase = molecular target: T1, γ-secretase (Homo sapiens, UniProt P49768); test: WTAPP cell assay Aβ42 (γ-secretase-modulating activity, SKNBE2 cells carrying APP 695 wild type); format: cell-based; conditions: for EC50: SKNBE2 cells carrying APP 695 wild type
T1 construct: endogenous in cells; host or cells: SKNBE2 cells carrying APP 695 wild type
Procedure: Screening of the Compounds of the Invention for γ-Secretase-Modulating Activity
Screening was carried out using SKNBE2 cells carrying the APP 695-wild type, grown in DMEM/NUT-mix F12 (HAM) provided by Gibco (cat no. 31330-38) containing 5% Serum/Fe supplemented with 1% non-essential amino acids.
Cells were grown to near confluency.
The screening was performed using the assay as described in Citron et al (1997) Nature Medicine 3: 67.

[1] = Brain and plasma compound concentration in mouse after oral dose; format: in vivo; conditions: 30 mg/kg, 30 mpk po
Procedure: (§1) A typical protocol for measuring Aβ42 lowering in vivo is shown but it is only one of many variations that could be used to optimize the levels of detectable Aβ. For example, Aβ42 lowering compounds as free acids or sodium salts were formulated in 5% of solutol in water or 20% hydroxypropyl β cyclodextrin. The Aβ42 lowering agents are administered as a single oral dose or by any acceptable route of administration e.g., three to four hours before sacrifice, determined empirically, and analysis or alternatively could be given over a course of days and the animals sacrificed three to four hours after the final dose is given.
(§2) The mice are anaesthetized with a mixture of Ketalar (Ketamin), Rompun (Xylazin 2%) and Atropin (2:1:1) and flushed trans-cardially with physiological serum at 4° C. Blood is collected at sacrifice. The blood collection is performed via a heart puncture during anesthesia in EDTA treated collection tubes. Blood is centrifuged at 4000 g for 5 minutes at 4° C. and the plasma recovered and flash frozen for later analysis. The brain is removed from the cranium and hindbrain and forebrain are separated with a cut in the coronal/frontal plane. The cerebellum is removed and retained for quantitative analysis of test compound levels. The forebrain is divided evenly into left and right hemisphere by using a midline sagital cut.
Oral dose 30 mg/kg at 4 hr Time Point

Aβ42 = test: In vivo mouse Aβ42 lowering (brain Aβ42 ELISA); conditions: oral dose 30 mg/kg, 4 hr time point
Source text: To determine whether acute administration of an Aβ42 lowering agent would reduce Aβ42 levels in vivo, non-transgenic rodents, e.g. mice or rats were used. Alternatively, two to three month old Tg2576 mice expressing APP695 containing the “Swedish” variant can be used or a transgenic mouse model developed by Dr. Fred Van Leuven (K. U. Leuven, Belgium) and co-workers, with neuron-specific expression of a clinical mutant of the human amyloid precursor protein [V717I] (Moechars et al., 1999 J. Biol. Chem. 274, 6483). Young transgenic mice have high levels of Aβ in the brain but no detectable Aβ deposition. At approximately 6-8 months of age , the transgenic mice start to display spontaneous, progressive accumulation of β-amyloid (Aβ) in the brain, eventually resulting in amyloid plaques within the subiculum, hippocampus and cortex. Animals treated with the Aβ42 lowering agent will be examined and compared to those untreated or treated with vehicle and brain levels of soluble Aβ42 and total Aβ would be quantitated by standard techniques, for example, using ELISA. Treatment periods may vary from hours to days and will be adjusted based on the results of the Aβ42 lowering once a time course of onset of effect can be established.
as §1, §2
Both hemispheres are immediately immersed in liquid nitrogen and stored at −70° C. until homogenization for biochemical assays. […]

Cyclooxygenase-1 (Cox-1) = molecular target: T2, Cyclooxygenase-1 (Cox-1) (Ovis aries, UniProt P05979); test: Colorimetric Cox inhibitor screening assay (Cayman), Cox-1; format: biochemical
T2 construct: purchased Cayman Chemical Company 760111
T2 sequence (P05979 25-600): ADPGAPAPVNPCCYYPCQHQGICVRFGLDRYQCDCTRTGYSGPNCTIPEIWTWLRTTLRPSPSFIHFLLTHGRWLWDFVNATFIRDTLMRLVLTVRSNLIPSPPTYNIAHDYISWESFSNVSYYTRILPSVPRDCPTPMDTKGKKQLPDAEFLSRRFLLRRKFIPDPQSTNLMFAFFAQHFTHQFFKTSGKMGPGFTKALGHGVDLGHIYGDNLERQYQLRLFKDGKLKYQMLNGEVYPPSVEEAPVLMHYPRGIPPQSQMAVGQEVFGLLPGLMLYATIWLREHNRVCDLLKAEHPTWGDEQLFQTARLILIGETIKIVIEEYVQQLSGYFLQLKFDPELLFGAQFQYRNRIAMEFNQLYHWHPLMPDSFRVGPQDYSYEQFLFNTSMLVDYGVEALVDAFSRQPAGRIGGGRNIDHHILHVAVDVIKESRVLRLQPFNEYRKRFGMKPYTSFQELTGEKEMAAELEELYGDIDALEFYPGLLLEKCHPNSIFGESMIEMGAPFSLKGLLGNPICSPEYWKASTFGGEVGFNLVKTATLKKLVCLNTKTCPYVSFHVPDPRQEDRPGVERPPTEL
Procedure: (§3) Determination of the Effect of the Compounds According to the Invention on Cyclooxygenase-1 and Cyclooxygenase-2 (Cox-1, Cox-2)
(§4) Inhibition of Cox-1 and Cox-2 was determined using the Colorimetric Cox inhibitor screening assay provided by Cayman Chemical Company, Ann Arbor, Mich., USA. (Cat. No. 760111) according to manufacturer's instructions.

Cyclooxygenase-2 (Cox-2) = molecular target: T3, Cyclooxygenase-2 (Cox-2) (Ovis aries, UniProt P79208); test: Colorimetric Cox inhibitor screening assay (Cayman), Cox-2; format: biochemical
T3 construct: purchased Cayman Chemical Company 760111
T3 sequence (P79208 17-603): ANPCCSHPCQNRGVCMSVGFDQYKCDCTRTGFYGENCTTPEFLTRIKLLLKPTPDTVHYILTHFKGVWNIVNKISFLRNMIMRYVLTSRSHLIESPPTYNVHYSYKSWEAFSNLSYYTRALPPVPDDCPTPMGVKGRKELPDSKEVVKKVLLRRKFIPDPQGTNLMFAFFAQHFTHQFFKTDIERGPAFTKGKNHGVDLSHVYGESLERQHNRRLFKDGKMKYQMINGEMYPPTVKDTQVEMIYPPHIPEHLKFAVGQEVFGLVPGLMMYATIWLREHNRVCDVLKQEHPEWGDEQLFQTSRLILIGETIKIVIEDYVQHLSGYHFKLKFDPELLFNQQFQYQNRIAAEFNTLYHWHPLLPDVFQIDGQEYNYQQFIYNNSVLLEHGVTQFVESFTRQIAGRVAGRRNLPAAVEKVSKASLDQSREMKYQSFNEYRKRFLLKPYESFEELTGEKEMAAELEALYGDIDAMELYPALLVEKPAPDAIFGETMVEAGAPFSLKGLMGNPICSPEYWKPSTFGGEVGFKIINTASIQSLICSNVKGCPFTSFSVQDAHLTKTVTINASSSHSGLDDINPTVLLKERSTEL
Procedure: as §3, §4

[2] = brain, read-out: Brain concentration @ 30 mpk po (4 hr)
[3] = plasma, read-out: Plasma concentration @ 30 mpk po (4 hr)

Compound | IC50 (γ-secretase; comparison compound, read-out: IC50 in the above WTAPP cell assay) [nM] | concentration at 4 h [1, 2] [µM] | concentration at 4 h [1, 3] [µM] | EC50 (γ-secretase) [nM] | In vivo mouse Aβ42 efficacy @ 30 mpk (4 hr) inhibition (Aβ42) [%] | inhibition at 100 µM (Cyclooxygenase-1 (Cox-1)) [%] | inhibition at 100 µM (Cyclooxygenase-2 (Cox-2)) [%]
CCC[C@H](C(=O)O)c1cc(OCc2ccccc2)cc(-c2ccc(C(F)(F)F)cc2)c1 [reference compound] | 2500 | – | – | – | – | – | –
CC(C)CC(C(=O)O)c1cc(OCc2cc(F)cc(F)c2)cc(-c2ccc(Cl)c(C(F)(F)F)c2)c1 (stereo not shown) [Compound 4, 2-[4′-Chloro-5-(3,5-difluoro-2-benzyloxy)-3′-trifluoromethyl-biphenyl-3-yl]-4-methyl-pentanoic acid] | – | 6.5 ± 1.5 | 6.5 ± 6.3 | 190 | 42 | – | –
CC(C)C[C@H](C(=O)O)c1cc(OCc2cc(F)cc(F)c2)cc(-c2ccc(C(F)(F)F)cc2)c1 [Compound 2, (S)-2-[5-(3,5-Difluoro-benzyloxy)-4′-trifluoromethyl-biphenyl-3-yl]-4-methyl-pentanoic acid] | – | 11.1 ± 2.8 | 11.1 ± 8.9 | 1120 | 45 | – | –
CC(C)C[C@@H](C(=O)O)c1cc(OCc2ccc(F)cc2C(F)(F)F)cc(-c2ccc(C(F)(F)F)cc2)c1 [Compound 3, (R)-2-[5-(4-fluoro-2-trifluoromethyl-benzyloxy)-4′-trifluoromethyl-biphenyl-3-yl]-4-methyl-pentanoic acid] | – | 5.1 ± 1.1 | 5.1 ± 2.8 | 316 | 25 | – | –
CC(C)C[C@@H](C(=O)O)c1cc(OCc2cc(F)cc(F)c2)cc(-c2ccc(C(F)(F)F)cc2)c1 [Compound 1, (R) 2-[5-(3,5-Difluoro-benzyloxy)-4′-trifluoromethyl-biphenyl-3-yl]-4-methyl-pentanoic acid] | – | 6.9 ± 2.3 | 6.9 ± 12.2 | 525 | 50 | < 50 | < 50
